Measured values: patent publication US9233921B2, “Potent poxvirus inhibitor” (priority 2013, dated 2016)
Like-named read-outs stand apart in the source and are kept apart here.

What was measured:
vaccinia virus = test: microbe, parasite or virus in culture; type: cell-based, Vaccinia virus (WR strain)
Cytotoxicity (CC50) = conditions: African green monkey, BSC-1 cells
[1] = Orthopoxvirus vaccinia, BSC-1, read-out: IC50 (antiviral)

Cc1cccc2c(Sc3ccc(Cl)cc3)c(C(=O)O)[nH]c12 [Compound 1c, 3-((4-Chlorophenyl)thio)-7-methyl-1H-indole-2-carboxylic acid]
IC50 (vaccinia virus; [1]): 46 to 86 µM
IC50 (vaccinia virus; read-out: IC50 (antiviral)): 74 µM

Cc1ccc2c(Sc3ccc(Cl)cc3Cl)c(C(=O)O)[nH]c2c1 [Compound 20, 3-((2,4-Dichlorophenyl)thio)-6-methyl-1H-indole-2-carboxylic acid]
fold activity improvement over the parent 1 (vaccinia virus): 2-11 fold
CC50 (Cytotoxicity (CC50)): 129 µM

COc1ccc(Sc2c(C(=O)O)[nH]c3cccc(C)c23)cc1 [Compound 19, 3-((4-Methoxyphenyl)thio)-4-methyl-1H-indole-2-carboxylic acid]
IC50 (antiviral) (vaccinia virus): failed to show antiviral activities

CCn1c(C(=O)OC)c(Sc2ccc(Cl)cc2)c2cc(C)ccc21 [Compound 5, Methyl 3-((4-chlorophenyl)thio)-1-ethyl-5-methyl-1H-indole-2-carboxylate]
fold improvement in activity of 5 over 3 (vaccinia virus): 2 fold
fold improvement in activity over the corresponding R1 methyl analogs 2 and 4 (vaccinia virus): 4 fold
IC50 (vaccinia virus; [1]): 39 µM

COC(=O)c1[nH]c2cc(C)ccc2c1Sc1ccc(Cl)cc1 [Compound 6, Methyl 3-((4-chlorophenyl)thio)-6-methyl-1H-indole-2-carboxylate]
IC50 (vaccinia virus; [1]): 19 µM
CC50 (Cytotoxicity (CC50)): 61 µM

O=C(O)c1[nH]c2cc(Br)ccc2c1Sc1ccc(Cl)cc1 [Compound 1f, 6-Bromo-3-((4-chlorophenyl)thio)-1H-indole-2-carboxylic acid]
IC50 (vaccinia virus; [1]): 40 to 51 µM
IC50 (vaccinia virus; read-out: IC50 (antiviral)): 51 µM
CC50 (Cytotoxicity (CC50)): 90 µM

Cc1ccc2c(Sc3cc(Cl)c(Cl)cc3Cl)c(C(=O)O)[nH]c2c1 [Compound 30, 6-Methyl-3-((2,4,5-trichlorophenyl)thio)-1H-indole-2-carboxylic acid]
IC50 (vaccinia virus; [1]): 25 µM
CC50 (Cytotoxicity (CC50)): 78 µM

Cc1ccc2c(Sc3ccc(Cl)cc3)c(C(=O)O)[nH]c2c1 [Compound 1, 3-((4-Chlorophenyl)thio)-6-methyl-1H-indole-2-carboxylic acid]
IC50 (vaccinia virus; Orthopoxvirus vaccinia): 82 µM
IC50 (vaccinia virus; [1]): 82 µM
CC50 (Cytotoxicity (CC50)): 192 µM

Cc1cccc2[nH]c(C(=O)O)c(Sc3cc(Cl)c(Cl)cc3Cl)c12 [Compound 30b, 4-Methyl-3-((2,4,5-trichlorophenyl)thio)-1H-indole-2-carboxylic acid]
IC50 (vaccinia virus; [1]): 18 µM
CC50 (Cytotoxicity (CC50)): 65 µM

Cc1ccc(C)c2c(Sc3ccc(Cl)cc3)c(C(=O)O)[nH]c12 [Compound 1j, 3-((4-chlorophenyl)thio)-4,7-dimethyl-1H-indole-2-carboxylic acid]
IC50 (vaccinia virus; [1]): 50 µM
CC50 (Cytotoxicity (CC50)): 109 µM

Cc1ccc(Sc2c(C(=O)O)[nH]c3cccc(C)c23)cc1 [Compound 19a, 4-Methyl-3-(p-tolylthio)-1H-indole-2-carboxylic acid]
IC50 (antiviral) (vaccinia virus): failed to show antiviral activities

CCn1c(C(=O)O)c(Sc2ccc(Cl)cc2)c2cc(C)ccc21 [Compound 3, 3-((4-Chlorophenyl)thio)-1-ethyl-5-methyl-1H-indole-2-carboxylic acid]
fold improvement in activity over the corresponding R1 methyl analogs 2 and 4 (vaccinia virus): 1.5 fold
IC50 (vaccinia virus; [1]): 86 µM

Cc1ccc2c(Sc3cccc(Cl)c3)c(C(=O)O)[nH]c2c1 [Compound 18a, 3-((3-Chlorophenyl)thio)-6-methyl-1H-indole-2-carboxylic acid]
IC50 (vaccinia virus; [1]): 51 µM

3-((3,5-Dichlorophenyl)thio)-6-methyl-1H-indole-2-carboxylate [Compound 27]
IC50 (antiviral) (vaccinia virus): loss of activity

CCc1ccc2c(Sc3ccc(Cl)cc3)c(C(=O)O)[nH]c2c1 [Compound 1h, 3-((4-Chlorophenyl)thio)-6-ethyl-1H-indole-2-carboxylic acid]
IC50 (vaccinia virus; [1]): 36 µM

COC(=O)c1ccc(Sc2c(C(=O)O)[nH]c3cccc(C)c23)cc1 [Compound 19b, 3-((4-(Methoxycarbonyl)phenyl)thio)-4-methyl-1H-indole-2-carboxylic acid]
IC50 (antiviral) (vaccinia virus): failed to show antiviral activities

COc1ccc(Sc2c(C(=O)O)[nH]c3cc(C)ccc23)cc1 [Compound 18e, 3-((4-Methoxyphenyl)thio)-6-methyl-1H-indole-2-carboxylic acid]
IC50 (antiviral) (vaccinia virus): failed to show antiviral activities

Cc1cccc2[nH]c(C(=O)O)c(Sc3ccc(Cl)cc3)c12 [Compound 1a, 3-((4-Chlorophenyl)thio)-4-methyl-1H-indole-2-carboxylic acid]
IC50 (vaccinia virus; [1]): 46 to 86 µM
IC50 (vaccinia virus; read-out: IC50 (antiviral)): 86 µM

COC(=O)c1[nH]c2cccc(C)c2c1Sc1ccc(Cl)cc1 [Compound 9, Methyl 3-((4-chlorophenyl)thio)-4-methyl-1H-indole-2-carboxylate]
IC50 (vaccinia virus; [1]): 21 µM

Cc1ccc2[nH]c(C(=O)O)c(Sc3ccc(Cl)cc3)c2c1 [Compound 1b, 3-((4-Chlorophenyl)thio)-5-methyl-1H-indole-2-carboxylic acid]
IC50 (vaccinia virus; [1]): 46 to 86 µM
IC50 (vaccinia virus; read-out: IC50 (antiviral)): 46 µM
CC50 (Cytotoxicity (CC50)): 136 µM

O=C(O)c1[nH]c2ccccc2c1Sc1cc(Cl)cc(Cl)c1 [Compound 26, 3-((3,5-Dichlorophenyl)thio)-1H-indole-2-carboxylic acid]
fold decrease in activity compared to 24 (vaccinia virus): ~6 fold
IC50 (vaccinia virus; [1]): 43 µM
CC50 (Cytotoxicity (CC50)): 133 µM

COC(=O)c1[nH]c2c(C)cccc2c1Sc1ccc(Cl)cc1 [Compound 8, Methyl 3-((4-chlorophenyl)thio)-7-methyl-1H-indole-2-carboxylate]
IC50 (vaccinia virus; [1]): 23 µM
CC50 (Cytotoxicity (CC50)): 32 µM

Cc1ccc2c(Sc3ccccc3)c(C(=O)O)[nH]c2c1 [Compound 18, 6-Methyl-3-(phenylthio)-1H-indole-2-carboxylic acid]
IC50 (antiviral) (vaccinia virus): abolished its antiviral activity

CCc1ccc2c(Sc3ccc(Cl)c(Cl)c3)c(C(=O)O)[nH]c2c1 [Compound 23, 3-((3,4-Dichlorophenyl)thio)-6-ethyl-1H-indole-2-carboxylic acid]
IC50 (vaccinia virus; [1]): 42 µM

O=C(O)c1[nH]c2cc(Cl)ccc2c1Sc1ccc(Cl)cc1 [Compound 1e, 6-Chloro-3-((4-chlorophenyl)thio)-1H-indole-2-carboxylic acid]
IC50 (vaccinia virus; [1]): 40 to 51 µM
IC50 (vaccinia virus; read-out: IC50 (antiviral)): 47 µM
CC50 (Cytotoxicity (CC50)): 138 µM

CCc1ccc2c(Sc3cc(Cl)cc(Cl)c3)c(C(=O)O)[nH]c2c1 [Compound 25, 3-((3,5-Dichlorophenyl)thio)-6-ethyl-1H-indole-2-carboxylic acid]
IC50 (vaccinia virus; [1]): 9 µM
CC50 (Cytotoxicity (CC50)): 63 µM

O=C(O)c1[nH]c2cc(F)ccc2c1Sc1ccc(Cl)cc1 [Compound 1g, 6-Fluoro-3-((4-chlorophenyl)thio)-1H-indole-2-carboxylic acid]
IC50 (vaccinia virus; [1]): 40 to 51 µM
IC50 (vaccinia virus; read-out: IC50 (antiviral)): 40 µM

Cc1cccc2c(Sc3ccc(Cl)c(Cl)c3)c(C(=O)O)[nH]c12 [Compound 22, 3-((3,4-Dichlorophenyl)thio)-7-methyl-1H-indole-2-carboxylic acid]
fold activity improvement over the parent 1 (vaccinia virus): 2-11 fold
CC50 (Cytotoxicity (CC50)): 150 µM

O=C(O)c1[nH]c2ccccc2c1Sc1ccc(Cl)cc1 [Compound 1d, 3-(4-Chlorophenylthio)-1H-indole-2-carboxylic acid]
IC50 (antiviral) (vaccinia virus): loss of activity

COc1cccc2[nH]c(C(=O)O)c(Sc3ccc(Cl)cc3)c12 [Compound 1i, 3-((4-Chlorophenyl)thio)-4-methoxy-1H-indole-2-carboxylic acid]
IC50 (antiviral) (vaccinia virus): loss of activity

Cc1cccc2c(Sc3cc(Cl)c(Cl)cc3Cl)c(C(=O)O)[nH]c12 [Compound 30a, 7-Methyl-3-((2,4,5-trichlorophenyl)thio)-1H-indole-2-carboxylic acid]
IC50 (vaccinia virus; [1]): 21 µM
CC50 (Cytotoxicity (CC50)): 93 µM

COC(=O)c1c(Sc2ccc(Cl)cc2)c2cc(C)ccc2n1C [Compound 4, Methyl 3-((4-chlorophenyl)thio)-1,5-dimethyl-1H-indole-2-carboxylate]
IC50 (vaccinia virus; [1]): 163 µM

Cc1ccc(Sc2c(C(=O)O)[nH]c3cc(C)ccc23)cc1 [Compound 18d, 6-Methyl-3-(p-tolylthio)-1H-indole-2-carboxylic acid]
IC50 (antiviral) (vaccinia virus): failed to show antiviral activities

Cc1ccc2c(Sc3cc(Cl)cc(Cl)c3)c(C(=O)O)[nH]c2c1 [Compound 24, 3-((3,5-Dichlorophenyl)thio)-6-methyl-1H-indole-2-carboxylic acid]
SI (selectivity index = CC50/IC50) (vaccinia virus): 11
fold activity improvement over the parent 1 (vaccinia virus): 2-11 fold
IC50 (vaccinia virus; Orthopoxvirus vaccinia): 7 µM
IC50 (vaccinia virus; [1]): 7 to 37 µM
CC50 (Cytotoxicity (CC50)): 75 µM

Cc1ccc2c(Sc3ccc(C(F)(F)F)cc3[N+](=O)[O-])c(C(=O)O)[nH]c2c1 [Compound 31, 6-Methyl-3-((2-nitro-4-(trifluoromethyl)phenyl)thio)-1H-indole-2-carboxylic acid]
IC50 (antiviral) (vaccinia virus): loss of activity

Cc1ccc2c(Sc3ccc(Cl)c(Cl)c3)c(C(=O)O)[nH]c2c1 [Compound 21, 3-((3,4-Dichlorophenyl)thio)-6-methyl-1H-indole-2-carboxylic acid]
fold activity improvement over the parent 1 (vaccinia virus): 2-11 fold
CC50 (Cytotoxicity (CC50)): 76 µM

Cc1ccc2c(Sc3cccc(F)c3)c(C(=O)O)[nH]c2c1 [Compound 18b, 3-((3-Fluorophenyl)thio)-6-methyl-1H-indole-2-carboxylic acid]
IC50 (vaccinia virus; [1]): 56 µM
IC50 (vaccinia virus; read-out: IC50 (antiviral)): 69 µM

Cc1ccc2c(Sc3ccc(C(F)(F)F)cc3)c(C(=O)O)[nH]c2c1 [Compound 18g, 6-Methyl-3-((4-(trifluoromethyl)phenyl)thio)-1H-indole-2-carboxylic acid]
IC50 (vaccinia virus; [1]): 33 µM
CC50 (Cytotoxicity (CC50)): 137 µM

Cc1cccc2[nH]c(C(=O)O)c(Sc3ccc([N+](=O)[O-])cc3)c12 [Compound 19c, 4-Methyl-3-((4-nitrophenyl)thio)-1H-indole-2-carboxylic acid]
IC50 (antiviral) (vaccinia virus): loss of activity

Cc1ccc2c(Sc3ccc(C(=O)O)cc3)c(C(=O)O)[nH]c2c1 [Compound 18f, 3-((4-Carboxyphenyl)thio)-6-methyl-1H-indole-2-carboxylic acid]
IC50 (antiviral) (vaccinia virus): loss of activity

Cc1ccc2c(c1)c(Sc1ccc(Cl)cc1)c(C(=O)O)n2C [Compound 2, 3-((4-Chlorophenyl)thio)-1,5-dimethyl-1H-indole-2-carboxylic acid]
IC50 (vaccinia virus; [1]): 135 µM

CNC(=O)c1[nH]c2cc(C)ccc2c1Sc1cc(Cl)cc(Cl)c1 [Compound 28, 3-((3,5-Dichlorophenyl)thio)-N,6-dimethyl-1H-indole-2-carboxamide]
IC50 (antiviral) (vaccinia virus): loss of activity
